System: rat brain microsomes
Test: Ca2+ release measurement with fluo-3 in rat brain microsomes
Format: biochemical
Conditions: for EC50: extramicrosomal Ca2+ by fluo-3, read-out: ED50 of Ca^2+ release
Procedure: Ca^2+ release measurements as follows: Rat brain microsomes were prepared on the day of the experiment. Loading of the microsomes with Ca^2+ took approximately 30 minutes at 24° C. and was used at a protein concentration of 0.5 mg/ml. The free Ca^2+ used for Ca^2+ loading was 0.5 to 2 uM and was present in the loading solution as a contaminant. Ca^2+ uptake and release was followed by measuring extramicrosomal Ca^2+ using fluo-3 (Cal-Biochem) (1 uM). Fluorescence intensity of fluo-3 was measured at excitation and emission wavelength of 490 and 535 nm respectively. Fluorimetry was performed on 500 ul aliquots of microsomes using a Perkin Elmer MF-3. Additions were made in volumes of 1-5 ul and all chemicals were added in incubation medium containing 10 uM EGTA. Ca^2+ traces were calibrated by adding Ca^2+ standard solution.
Ca^2+ release measurements were done as outlined in Example 1.

Row | EC50 | Compound | Ca^2+ release caused by the substance | further results
1 |  | ryanodine |  | effect on Ca^2+ release induced by cADPR (release induced by cADPR): inhibited release of Ca^2+ by cADPR
2 |  | heparin |  | effect on Ca^2+ release induced by IP3 (release induced by IP3): blocked Ca^2+ release induced by IP3
3 | 100 nM | N=c1c2ncn3c2ncn1[C@@H]1O[C@H](COP(=O)(O)OP(=O)(O)OC[C@H]2O[C@@H]3[C@H](O)[C@@H]2O)[C@@H](O)[C@H]1O [cADPR, cyclic ADP-ribose] |  | 
4 |  | Nc1ncnc2c1ncn2[C@@H]1O[C@H](COP(=O)(O)OP(=O)(O)OC[C@H]2OC(O)[C@H](O)[C@@H]2O)[C@@H](O)[C@H]1O (stereo partly shown) [ADPR, ADP-ribose] | caused no Ca^2+ release | 
5 | 5 nM | N=c1c2ncn3c2ncn1[C@@H]1O[C@H](COP(=O)(O)OP(=O)(O)OP(=O)(O)OC[C@H]2O[C@@H]3[C@H](O)[C@@H]2O)[C@@H](O)[C@H]1O [cATPR, cycle ATP-ribose] |  | potency relative to cADPR (times more potent) (ratio of ED50 values): approximately 20 times
6 |  | NC(=O)c1ccc[n+]([C@@H]2O[C@H](COP(=O)([O-])OP(=O)(O)OC[C@H]3O[C@@H](n4cnc5c(N)ncnc54)[C@H](O)[C@@H]3O)[C@@H](O)[C@H]2O)c1 [β-NAD] | caused no Ca^2+ release | 

From patent US5608047A, “Cyclic ADP-ribose and analogs” (Wisconsin Alumni Research Foundation, priority 1995, dated 1997)
